Measured values published in patent publication US20140037642A1, “METHODS AND COMPOSITIONS RELATING TO INHIBITION OF IGF-1R” (AMGEN INC., priority 2011, published 2014).

Tests used:
[1] = tested on: metastatic pancreatic cancer patients; assay: Placebo-controlled, randomized phase 2 study plus gemcitabine; format: in vivo, human
Method: The primary endpoint was six month overall survival rate.
Key inclusion criteria were histologically or cytologically documented metastatic adenocarcinoma of the pancreas, age eighteen years or older, ECOG PS 0 or 1, adequate hematologic, hepatic, renal, and coagulation function, amylase and lipase≦2.0×ULN, adequately controlled type 1 or 2 diabetes (amended during protocol to fasting blood glucose<[…] only), fasting blood glucose≦[…], HbAlc<8%, and written informed consent.
Key exclusion criteria were uncontrolled cardiac disease and prior chemotherapy or radiation in the adjuvant or metastatic setting.

[2] = tested on: metastatic pancreatic cancer patients; assay: Overall survival in baseline circulating biomarker subgroups of the phase 2 study; format: in vivo, human; set-up: Median OS: unit not given here
Excerpt: To establish the relationship between levels of these baseline markers and overall survival, a Cox proportional hazard model was used to calculate hazard ratios (HR) using normalized log transformed marker concentrations. This analysis tests the risk of death associated with a unit increase in the normalized log baseline biomarker and this risk is expressed as a hazard ratio. Because of the small sample size, it is difficult to dissect prognostic associations from relationships that are modified by treatment with ganitumab relative to placebo, i.e., predictive. This is because the addition of treatment effect adds a variable to the analysis that compromises the power of the test masking significant predictive relationships that may exist. However even a prognostic relationship identified in this analysis is important because it informs the hypothesized relationship between circulating bioavailable ligands and the adaptation of the tumor to IGF-1R dependent progression, and in turn sensitivity to inhibitors that block IGF-1R or downstream signaling pathways.
This allows a direct test of the predictive value of using these markers in a dichotomized way to predict OS in pancreatic cancer patients that are treated with inhibitors of IGF-1R.
To represent these relationships Kaplan-Maier plots were generated that show the OS for the high and low subgroups by plotting the fraction of patients in each sub-group that survive against time.

[3] = molecular target: IGF-1R (Homo sapiens, UniProt P08069); details: biphasic binding; read-out: KD of high affinity binding to IGF-1R; cited from earlier work
[4] = patients with measurable disease at baseline, plus gemcitabine
[5] = plus gemcitabine, conatumumab 10 mg/kg Q2W or ganitumab 12 mg/kg Q2W
[6] = plus gemcitabine, conatumumab 10 mg/kg Q2W or ganitumab 12 mg/kg Q2W, listed as conatumumab
[7] = versus placebo plus gemcitabine

Conatumumab: conatumumab (AMG 655), amino acid sequences in FIG. 19; given with gemcitabine in the phase 2 study
Best Overall Response: Confirmed CR - n (%) [1, 4]: 0 (0) n (%)
Best Overall Response: Confirmed PR - n (%) [1, 4]: 1 (3) n (%)
Best Overall Response: PD - n (%) [1, 4]: 12 (32) n (%)
Best Overall Response: SD (Includes Unconfirmed PR) - n (%) [1, 4]: 22 (58) n (%)
Best Overall Response: Unconfirmed PR - n (%) [1, 4]: 2 (5) n (%)
Best Overall Response: Unknown - n (%) [1, 4]: 3 (8) n (%)
Abdominal pain, grade 3-5 ([1]; plus gemcitabine): 7 (17) n (%)
Anemia, grade 3-5 ([1]; plus gemcitabine): 4 (10) n (%)
Aspartate Aminotransferase Increased, grade 3-5 ([1]; plus gemcitabine): 3 (7) n (%)
Deep Vein Thrombosis, grade 3-5 ([1]; plus gemcitabine): 4 (10) n (%)
Fatigue, grade 3-5 ([1]; plus gemcitabine): 5 (12) n (%)
Hyperbilirubinemia, grade 3-5 ([1]; plus gemcitabine): 2 (5) n (%)
Hyperglycemia, grade 3-5 ([1]; plus gemcitabine): 1 (2) n (%)
Hypotension, grade 3-5 ([1]; plus gemcitabine): 3 (7) n (%)
Neutropenia, grade 3-5 ([1]; plus gemcitabine): 9 (22) n (%)
Pulmonary Embolism, grade 3-5 ([1]; plus gemcitabine): 1 (2) n (%)
Thrombocytopenia, grade 3-5 ([1]; plus gemcitabine): 7 (17) n (%)
rate of SD+PR ([1]; plus gemcitabine): 61%
6-Month OS Rate (95% CI) [1, 5]: 59% (42, 73)
12-Month OS Rate (95% CI) [1, 5]: 20% (9, 34)
Median OS, Months (95% CI) [1, 5]: 7.5 (4.8, 10.0) Months
Median PFS, Months (95% CI) [1, 5]: 4.0 (3.3, 5.0) Months
6-Month OS Rate (95% CI) [1, 6]: 59%
Median PFS, Months (95% CI) [1, 6]: 4.0 Months
Number of Patients Reporting ≧1 AE, grade 3-5 ([1]; plus gemcitabine, conatumumab N = 41, ganitumab N = 40): 36 (88) n (%)
Stratified HR (95% CI), OS [1, 7]: 0.87 (0.53, 1.43)
Stratified HR (95% CI), PFS [1, 7]: 0.65 (0.41, 1.05)
Stratified HR (95% CI), PFS ([1]; versus placebo plus gemcitabine, listed as conatumumab): 0.65
Median OS ([2]; IGF-2 High (>=median)): 214
OS HR, treatment vs placebo ([2]; IGF-2 High (>=median)): 0.56
Median OS ([2]; IGF-2 Low (<median)): 263
OS HR, treatment vs placebo ([2]; IGF-2 Low (<median)): 1.08
Median OS ([2]; IGF-BP1 High (>=median)): 178
OS HR, treatment vs placebo ([2]; IGF-BP1 High (>=median)): 0.77
Median OS ([2]; IGF-BP1 Low (<median)): 254
OS HR, treatment vs placebo ([2]; IGF-BP1 Low (<median)): 0.68
Median OS ([2]; IGF-BP2 High (>=median)): 178
OS HR, treatment vs placebo ([2]; IGF-BP2 High (>=median)): 0.69
Median OS ([2]; IGF-BP2 Low (<median)): 244
OS HR, treatment vs placebo ([2]; IGF-BP2 Low (<median)): 0.91
Median OS ([2]; IGF-BP3 High (>=median)): 244
OS HR, treatment vs placebo ([2]; IGF-BP3 High (>=median)): 0.77
Median OS ([2]; IGF-BP3 Low (<median)): 129
OS HR, treatment vs placebo ([2]; IGF-BP3 Low (<median)): 0.86
Median OS ([2]; IGF-BP4 High (>=median)): 216
OS HR, treatment vs placebo ([2]; IGF-BP4 High (>=median)): 0.97
Median OS ([2]; IGF-BP4 Low (<median)): 216
OS HR, treatment vs placebo ([2]; IGF-BP4 Low (<median)): 0.86
Median OS ([2]; Total IGF-1 High (>=median)): 231
OS HR, treatment vs placebo ([2]; Total IGF-1 High (>=median)): 0.56
Median OS ([2]; Total IGF-1 Low (<median)): 178
OS HR, treatment vs placebo ([2]; Total IGF-1 Low (<median)): 0.53

IGF-2: insulin-like growth factor, ligand of IGF-1R
Kd [3]: ~0.2 nM
